Measurements as given in ChEMBL document CHEMBL6083198, “Rational design of a high-affinity fluorescent probe for visualizing monitoring the amyloid β clearance effect of anti-Alzheimer's disease drug candidates” (Eur J Med Chem, 2024).
The source made the active and inactive calls. The rule behind the calls is not given here.

How the values were obtained:
[1] = target: T1, Amyloid-beta precursor protein (Homo sapiens, UniProt P05067); experiment: Binding affinity to amyloid beta (unknown origin) assessed as dissociation constant
T1 sequence (P05067 whole entry): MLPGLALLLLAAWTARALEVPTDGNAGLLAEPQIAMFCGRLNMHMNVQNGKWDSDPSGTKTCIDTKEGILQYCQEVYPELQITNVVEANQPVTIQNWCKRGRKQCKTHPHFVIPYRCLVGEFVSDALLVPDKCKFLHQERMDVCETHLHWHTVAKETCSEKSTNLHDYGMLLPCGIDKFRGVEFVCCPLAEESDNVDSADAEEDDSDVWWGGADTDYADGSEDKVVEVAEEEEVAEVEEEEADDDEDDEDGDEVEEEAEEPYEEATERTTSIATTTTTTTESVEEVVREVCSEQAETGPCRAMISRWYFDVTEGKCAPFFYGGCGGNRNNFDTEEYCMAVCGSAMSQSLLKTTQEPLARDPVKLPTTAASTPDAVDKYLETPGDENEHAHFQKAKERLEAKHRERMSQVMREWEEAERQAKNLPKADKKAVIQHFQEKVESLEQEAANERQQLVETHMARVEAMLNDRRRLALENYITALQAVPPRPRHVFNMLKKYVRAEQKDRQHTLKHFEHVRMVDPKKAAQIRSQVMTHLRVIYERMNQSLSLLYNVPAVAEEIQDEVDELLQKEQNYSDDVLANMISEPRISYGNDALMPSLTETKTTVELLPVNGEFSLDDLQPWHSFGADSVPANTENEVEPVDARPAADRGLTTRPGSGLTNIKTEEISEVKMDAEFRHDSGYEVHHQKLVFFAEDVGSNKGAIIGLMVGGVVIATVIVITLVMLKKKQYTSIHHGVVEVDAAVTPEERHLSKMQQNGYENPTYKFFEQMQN

[2] = target: T1, Amyloid-beta precursor protein; experiment: Binding affinity to amyloid beta plaques 1 to 42 (unknown origin) assessed as dissociation constant
[3] = Fluorescence property of compound in DCM assessed as fluorescence quantum yield; type: physicochemical
[4] = Binding affinity to amyloid beta oligomer (unknown origin) assessed as dissociation constant; set-up: species or system Homo sapiens
[5] = (§1) Binding affinity to amyloid beta fibril (unknown origin) assessed as dissociation constant; set-up: species or system Homo sapiens
Homo sapiens [6] = organism: Homo sapiens; experiment: as §1
Homo sapiens [7] = organism: Homo sapiens; experiment: Binding affinity to amyloid beta monomer (unknown origin) assessed as dissociation constant
Albumin = Albumin (Bos taurus, UniProt P02769); experiment: Binding affinity to bovine serum albumin (unknown origin) at 0.05 mg/ml by fluorescence analysis; conditions: cattle
Albumin, sequence (P02769 whole entry): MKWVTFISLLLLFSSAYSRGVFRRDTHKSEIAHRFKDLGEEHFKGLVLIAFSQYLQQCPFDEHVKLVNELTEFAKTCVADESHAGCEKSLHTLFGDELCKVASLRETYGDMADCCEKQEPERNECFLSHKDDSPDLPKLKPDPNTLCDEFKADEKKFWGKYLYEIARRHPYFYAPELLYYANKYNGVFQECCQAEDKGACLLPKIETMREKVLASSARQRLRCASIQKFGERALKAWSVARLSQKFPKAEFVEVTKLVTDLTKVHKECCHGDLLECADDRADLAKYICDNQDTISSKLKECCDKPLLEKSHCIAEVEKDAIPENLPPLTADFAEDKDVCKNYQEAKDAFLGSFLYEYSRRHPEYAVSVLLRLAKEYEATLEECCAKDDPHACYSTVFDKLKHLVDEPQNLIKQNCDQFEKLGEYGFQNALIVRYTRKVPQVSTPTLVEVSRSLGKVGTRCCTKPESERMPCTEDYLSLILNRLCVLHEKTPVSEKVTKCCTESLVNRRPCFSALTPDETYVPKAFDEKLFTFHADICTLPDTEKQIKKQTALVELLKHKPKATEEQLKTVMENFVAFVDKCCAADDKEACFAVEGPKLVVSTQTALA

Homo sapiens [8] = organism: Homo sapiens; experiment: Binding affinity to pepsin (unknown origin) at 0.05 mg/ml by fluorescence analysis
Trypsin (Homo sapiens) = Trypsin (Homo sapiens) (UniProt P07477+P07478+P35030); experiment: Binding affinity to trypsin (unknown origin) at 0.05 mg/ml by fluorescence analysis; type: protein assay
Homo sapiens [9] = organism: Homo sapiens; experiment: Binding affinity to lysozyme (unknown origin) at 0.05 mg/ml by fluorescence analysis
[10] = Binding affinity to cellulase (unknown origin) at 0.05 mg/ml by fluorescence analysis
Homo sapiens [11] = organism: Homo sapiens; experiment: Binding affinity to phosphoesterase (unknown origin) at 0.05 mg/ml by fluorescence analysis
[12] = target: T1, Amyloid-beta precursor protein; experiment: Binding affinity to amyloid beta oligomers (unknown origin) at 5 uM by fluorescence analysis
Homo sapiens [13] = organism: Homo sapiens; experiment: Binding affinity to amyloid beta fibril (unknown origin) at 0.025 mg/ml by fluorescence analysis
[14] = Stability of compound at pH 2 to 10 in presence of Amyloid beta; type: physicochemical; conditions: buffer
[15] = Photostability of compound under continuous light irradiation; type: physicochemical
SH-SY5Y [16] = experiment: Cytotoxicity against human SH-SY5Y cells at 100 uM incubated for 24 hrs; type: toxicity, cell-based
U-87 MG = experiment: Cytotoxicity against human U-87 MG cells at 100 uM incubated for 24 hrs; type: toxicity, cell-based; conditions: u-87mg atcc
Mus musculus [17] = organism: Mus musculus; experiment: Binding affinity to amyloid beta plaques in 12 month old male APP/PS1 transgenic mouse model assessed as colocalization of amyloid beta plaques in brain at 100 uM incubated for 30 min by ab205240 staining based immunohistofluorescence assay; type: tissue-based; conditions: time 12.0 months
Mus musculus [18] = organism: Mus musculus; experiment: Binding affinity to amyloid beta plaques in 12 month old male APP/PS1 transgenic mouse model assessed as signal to noise ratio in brain slice at 100 uM incubated for 30 min by confocal microscopic analysis; type: tissue-based; conditions: time 12.0 months
Mus musculus [19] = organism: Mus musculus; experiment: Binding affinity to amyloid beta plaques in 12 month old male APP/PS1mouse brain cerebral cortex by light-sheet microscopy; type: tissue-based; conditions: time 12.0 months
Caenorhabditis elegans [20] = experiment: Anti-alzheimer activity against heat-induced Caenorhabditis elegans CL4176 AD paralysis model assessed as reduction in amyloid-beta deposition measured after 5 days by ThS staining based fluorescence assay; type: functional, organism-based; conditions: dose 100-200 µM, time 5.0 day
SH-SY5Y [21] = experiment: Neuroprotective activity against amyloid beta-induced toxicity in human SH-SY5Y cells assessed as reduction in fluorescence intensity at 2 uM incubated for 24 hrs by immunofluorescence staining based analysis; type: functional, cell-based
[22] = target: T1, Amyloid-beta precursor protein; experiment: Inhibition of amyloid beta aggregation in amyloid beta-induced human SH-SY5Y cells assessed as reduction in fluorescence intensity at 2 to 20 uM incubated for 24 hrs by Western blot analysis; type: cell-based; conditions: dose 2-20 µM
Caenorhabditis elegans [23] = experiment: Anti-alzheimer activity against heat-induced Caenorhabditis elegans CL4176 AD paralysis model assessed as reduction in amyloid-beta deposition at 100 to 200 uM; type: functional, organism-based; conditions: dose 100-200 µM, time 5.0 day
Caenorhabditis elegans [24] = experiment: Anti-alzheimer activity against heat-induced Caenorhabditis elegans CL2006 AD paralysis model assessed as reduction in amyloid-beta deposition at 200 uM measured after 5 days by ThS staining based fluorescence assay; type: functional, organism-based; conditions: time 5.0 day
[25] = Fluorescence property of compound in aqueous solution assessed as fluorescence quantum yield; type: physicochemical; conditions: buffer
SH-SY5Y [26] = experiment: Neuroprotective activity against amyloid beta-induced toxicity in human SH-SY5Y cells assessed as reduction in fluorescence intensity at 10 uM incubated for 24 hrs by immunofluorescence staining based analysis; type: functional, cell-based

## CN(C)c1ccc2cc(/C=C/c3ccc4ccccc4[n+]3C)c(=O)oc2c1
[1]
  Kd: 0.086 µM

## CN(C)c1ccc(/C=C/C=C(C#N)/C=C/C(C#N)=C/C=C/C=C/c2ccc(N(C)C)cc2)cc1
[2]
  Kd: 0.00104 µM

## CN(C)c1ccc(/C=C/c2ccc3cc(C#N)c(=O)oc3c2)cc1
[3]
  Activity: 0.3
[4]
  Kd: 0.0815 µM
[5]
  Kd: 0.0667 µM
Homo sapiens [6]
  Activity: Active
Homo sapiens [7]
  Activity: inactive
Albumin
  Activity: Not_active
Homo sapiens [8]
  Activity: inactive
Trypsin (Homo sapiens)
  Activity: inactive
Homo sapiens [9]
  Activity: inactive
[10]
  Activity: inactive
Homo sapiens [11]
  Activity: inactive
[12]
  Activity: Active
Homo sapiens [13]
  Activity: Active
[14]
  Stability: Stable
[15]
  Stability: Stable
SH-SY5Y [16]
  Activity: Non-toxic
U-87 MG
  Activity: Non-toxic
Mus musculus [17]
  Activity: Active
Mus musculus [18]
  Activity: Active
Mus musculus [19]
  Activity: Active

## O=c1c(O)c(-c2ccc(O)c(O)c2)oc2cc(O)cc(O)c12
Caenorhabditis elegans [20]
  Activity: Dose-dependent-effect

## CN(C)c1ccc(/C=C/C=C/C=C(C#N)C#N)s1
[1]
  Kd: 0.117 µM

## CN(C)c1ccc(-c2ccc(/C=C/C3CC(=C(C#N)C#N)c4ccccc4N3CCCS(=O)(=O)O)s2)cc1 (configuration not stated)
[1]
  Kd: 0.17 µM

## CN(C)c1ccc2cc3c(cc2c1)OCC(C=C(C#N)C#N)=C3
[1]
  Kd: 0.0448 µM

## CC(=O)Oc1cccc(C(=O)Nc2ncc(N3CCOCC3)s2)c1
SH-SY5Y [21]
  Activity: Active
[22]
  Activity: Active
Caenorhabditis elegans [23]
  Activity: Active
Caenorhabditis elegans [20]
  Activity: Dose-dependent-effect
Caenorhabditis elegans [24]
  Activity: inactive

## CCCN1/C(=C/C=C2\CCCC(C=C(C#N)C#N)=C2Cl)C(C)(C)c2ccccc21
[2]
  Kd: 0.0591 µM

## COCCOCCOC(=O)CCN1C(=O)/C(=C/c2ccc3c(c2)Sc2ccccc2N3C)SC1=S
[1]
  Kd: 0.0282 µM

## Cc1cc(/C=C/c2ccc(N(C)C)s2)n2c1C(CCCN1CCNc3ccccc31)=C1C=CC=[N+]1[B-]2(F)F
[2]
  Kd: 0.027 µM

## CN(C)c1ccc(-c2ccc3cc(C#N)c(=N)oc3c2)cc1
[25]
  Activity: 0.027
[1]
  Kd: 0.548 µM

## COCCOCCn1c2ccccc2c2cc(CCc3cc[n+](C)c4ccccc34)ccc21
[1]
  Kd: 0.0131 µM

## CC(=O)Oc1ccccc1C(=O)Nc1ncc([N+](=O)[O-])s1
SH-SY5Y [26]
  Activity: Active
[22]
  Activity: Active
Caenorhabditis elegans [23]
  Activity: Active
Caenorhabditis elegans [20]
  Activity: Dose-dependent-effect

## CCN(CC)c1ccc(/C=C/C2=[O+][B-](F)(F)OC(/C=C/c3ccc(N(CC)CC)nc3)=C2CCCOc2c(C)cccc2C)cc1
[2]
  Kd: 0.506 µM
